In one assay the test system is rat mesenteric arteries. As to the kind of experiment: Vasoreactivity in rat mesenteric arteries in vitro (relaxation of U46619-contracted vessels, tension myograph). To be noted: for inhibition at 1 µM / inhibition at 3 µM / inhibition at 10 µM / inhibition at 30 µM / % relaxation 1 μM / % relaxation 3 μM / % relaxation 10 μM / % relaxation 30 μM: U46619-contracted third-order arteries; for EC50: vasorelaxation, calculated from concentration-response curves. Here is the method:
Male rats (Sprague-Dawley; 200-250 g) were stunned and killed by cervical dislocation. The mesentery was removed and third-order arteries mounted in an automated tension myograph (Danish Myotechnology). After an equilibration period of 45 min, vessels were normalized and diameter determined. Following normalization, each vessel was contracted repeatedly with the thromboxane A2-mimetic 9,11-dideoxy-11^α,9^α-epoxymethano-prostaglandin F2α (U46619; 1 μM) until the response was reproducible. The vessels were then washed to restore basal tone before contracting to approximately 50% of the maximum U46619-induced response. Once a stable response to U46619 was achieved, cumulative concentration-response curves were constructed with a variety of NPR-C agonists of the invention at varying concentrations (0.001-30 μM), or vehicle (DMSO). In some studies, concentration-response curves to NPR-C agonists were conducted in the presence of the NPR-C antagonist M372049 (10 μM). Only one curve to any one agonist was constructed in any single tissue.

The test system of another assay is human platelets. As to the kind of experiment: Human platelet aggregation in platelet rich plasma. To be noted: for inhibition at 1 µM: Homo sapiens. The class given is cell-based. Here is the method: Blood samples (35 ml) were taken from healthy volunteers who had abstained from aspirin, non-steroidal anti-inflammatory drugs or paracetamol for 14 days. Blood was collected by venepuncture into tri-sodium citrate (3.2% w/v) and centrifuged at 175 g for 15 min to obtain platelet rich plasma (PRP). Platelet poor plasma (PPP) was obtained by centrifugation of PRP at 15000 g for 5 min. The PRP (100 μl) was then added to the wells of 96-well plates and incubated for 15 mins with representative NPR-C agonists of the invention or vehicle (DMSO). Subsequently, platelet agonists (10 μl each) were added to wells in triplicate: adenosine diphosphate (ADP, 0.1-30 μM), arachidonic acid (AA, 0.03-1.3 mM), collagen (type I equine tendon 0.1-30 μg/ml), adrenaline (0.001-100 μM), ristocetin (0.2-3 mg/ml), TRAP6 (thrombin receptor activating peptide) amide (SFLLRN; 0.1-30 μM), U46619 (0.1-30 μM) or vehicle. Plates were then immediately placed in a 96-well plate reader and absorbance determined at 595 nm every 15 s for 16 min between vigorous shaking at 37° C. Changes in absorbance were converted to % aggregation by reference to the absorbances of PRP and PPP.

The test system of assay [1] is rat mesenteric artery smooth muscle cells. Put plainly: Ca2+ flux in response to Angiotensin II in isolated rat mesenteric artery smooth muscle cells (FLIPR). The class given is cell-based. To be noted: for inhibition at 1 µM / inhibition at 10 µM: Rattus norvegicus; for inhibition at 1 µM: read-out: % inhibition 1 μM; for inhibition at 10 µM: read-out: % inhibition 10 μM. Here is the method:
Mesenteric artery smooth muscle cells were isolated from male Sprague-Dawley rats (200-250 g). Mesenteric arteries were dissected, cleared of extraneous tissue and incubated in an enzyme solution containing collagenase type I (1 mg/ml), soybean trypsin inhibitor (0.25 mg/ml), bovine albumin (1 mg/ml), CaCl2 (0.2 mM), 100 U/ml penicillin (100 U/ml) and streptomycin (100 μg/ml) in a humidified incubator with 5% CO2 in air. The enzyme solution was replenished at 30 min intervals and cells were pelleted by centrifugation (200 g, 5 min) and differentially plated (×2) for 15 min in Dulbecco's Modified Eagle's Medium (DMEM) supplemented with penicillin (100 U/ml), streptomycin (100 μg/ml), L-Glutamine (2 mM) and 10% heat inactivated New Zealand foetal calf serum. Cells were passaged by trypsinisation and viability determined by trypan blue exclusion.
Measurements of Ca^2+ flux in response to Angiotensin II were conducted using a Fluorescent Imaging Plate Reader (FLIPR; Molecular Devices). Cells were plated at a density of 10,000 cells/well into black, clear-bottomed 96-well plates in DMEM supplemented with penicillin (100 U/ml), streptomycin (100 μg/ml), L-Glutamine (2 mM) and 10% heat inactivated New Zealand foetal calf serum. 24 hrs later the cells were incubated with Fluo-3-AM (4 μM) for 60 min at 37° C. Once dye-loaded, the cells were washed thoroughly with the proprietary assay buffer to remove any unincorporated dye. The cells were then incubated with varying concentrations of a number of representative NPR-C agonist molecules of the invention, C-type natriuretic peptide or vehicle (DMSO) and placed into the FLIPR. After 15 mins, Angiotensin II (100 nM) was automatically dispensed into each well and the fluorescence signal followed for 5 mins. Potency was determined by comparison of the peak fluorescence in each test well (run in triplicate) with that of the control (Angiotensin II alone). Background fluorescence (assay buffer only) was subtracted from all values.

A further assay concerns arterial blood pressure. Put plainly: Mean arterial pressure measurements in anesthetized mice. The class given is in vivo. Here is the method:
Mice were maintained under anesthesia (isoflurane, 1-1.5%, in 100% O2 at 0.4 L·min) throughout the experiment and body temperature was kept constant at 37.5° C. A Millar pressure transducer catheter (Millar Instruments, Houston, Tex., USA) was placed in the carotid artery for arterial blood pressure (BP) measurements and a tube catheter (polyvinyl tubing, 0.61 mm outside diameter) in the jugular vein for intravenous bolus doses of 118 ([…]) and vehicle (10% DMSO in PBS) using a 0.5 mL insulin syringe. A pump (flow 0.5 ml/h) was used for infusion of 118 (1 mg/kg/min) or vehicle (10% dimethylsulfoxide; DMSO in PBS) during 10 min. BP was evaluated throughout.

The target of the next assay is Human NPR-C (Homo sapiens (Human), UniProt P17342). As to the kind of experiment: Surface plasmon resonance (SPR) spectroscopy, binding to immobilised human NPR-C. To be noted: FIGS. 5, 6 and 7. Here is the method:
All SPR analysis was performed on a BIAcore T200 system using series S CM5 sensor chips. Data processing and analysis were performed using BIAevaluation software and Scrubber2. All sensorgrams were double referenced by subtracting the response on a reference flowcell and a blank sample.
Human NPR-C (OriGene, Rockville, USA), was covalently attached to a CM5 chip via amine coupling. A surface density of 2700 RU was used for measurements with natriuretic peptides and the NPR-C antagonist M372049, and a density of 5200 RU for measurements with compound 118. Sequential injections of CNP (0.25, 0.50, 1, 2 & 4 nM) were performed at a flow rate of 30 μL/min for (240 s for each), followed by a dissociation time of 3600 s. Binding site saturation was observed and the surface was regenerated by two injections of 1M NaCl (200 s each). Binding of M372049 (0.94, 1.88, 3.75, 7.5, 15, 30 & 60 nM) and Compound 118 (1.17, 2.34, 4.70, 9.38, 18.75, 37.50, 75 & 150 μM) was analysed by sequential injections (120 s for M372049, 30 s for compound 118) followed by undisturbed dissociation (600 s for M372049, 30 s for compound 118), during which curves returned to baseline. Kinetic parameters were calculated assuming a simple 1:1 (Langmuir) binding.
On the technique in general: SPR reads the build-up and loss of mass on a sensor chip optically.

[2] abbreviates: 1 μM compound, inhibition of Angiotensin II (100 nM) Ca2+ flux peak fluorescence.
The mark [3] stands for this setting: 10 μM compound, inhibition of Angiotensin II (100 nM) Ca2+ flux peak fluorescence.

Read-outs that look alike come from different tables or passages of the source.

Sequence of Human NPR-C (P17342 27-541): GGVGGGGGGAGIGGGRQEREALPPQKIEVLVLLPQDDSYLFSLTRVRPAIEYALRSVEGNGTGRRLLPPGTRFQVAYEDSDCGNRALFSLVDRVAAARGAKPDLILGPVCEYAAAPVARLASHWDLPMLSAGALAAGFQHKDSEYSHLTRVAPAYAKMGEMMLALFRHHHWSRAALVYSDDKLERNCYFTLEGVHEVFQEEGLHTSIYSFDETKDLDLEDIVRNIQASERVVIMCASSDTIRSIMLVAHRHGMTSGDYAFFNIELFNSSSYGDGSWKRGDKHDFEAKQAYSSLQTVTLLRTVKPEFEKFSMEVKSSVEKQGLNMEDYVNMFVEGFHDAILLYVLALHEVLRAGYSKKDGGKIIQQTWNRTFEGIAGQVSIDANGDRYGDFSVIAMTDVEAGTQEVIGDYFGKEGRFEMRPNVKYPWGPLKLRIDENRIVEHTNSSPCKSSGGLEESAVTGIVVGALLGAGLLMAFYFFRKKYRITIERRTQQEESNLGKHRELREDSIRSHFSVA

The term inhibition denotes the relative decrease from the control value, in per cent. For orientation: EC50 means the concentration needed to bring the measured effect to its halfway point. In the assay with rat mesenteric arteries (Rattus norvegicus), `CC(C)(C)OC(=O)CNC(=O)c1cn(Cc2ccccc2)c2ccc(Br)cc2c1=O` [Compound 28, tert-butyl 2-(1-benzyl-6-bromo-4-oxo-1,4-dihydroquinoline-3-carboxamido)acetate] came in with an inhibition at 1 µM of 22%, an inhibition at 3 µM of 55%, an inhibition at 10 µM of 97% and an inhibition at 30 µM of 100%. Besides, the EC50 in the assay with rat mesenteric arteries (Rattus norvegicus) is 1.6 µM. The inhibition at 1 µM with human platelets stood at 14.3%. In addition, in assay [1], the inhibition at 1 µM stood at 100% and the inhibition at 10 µM was found to be 100%.

Turning to `CC(C)C(NC(=O)c1cn(Cc2ccccc2)c2ccccc2c1=O)C(=O)O` (centres unmarked) [Compound 116], in the assay on rat mesenteric arteries, the “% relaxation 1 μM” value was 4%, the “% relaxation 3 μM” value amounted to 0%, the “% relaxation 10 μM” value came out at 0% and the “% relaxation 30 μM” value is 9%. Moreover, the “% inhibition 1 μM” value in assay [1] (setting [2]) worked out at 80%. For the same compound, in assay [1] (setting [3]), the “% inhibition 10 μM” value amounted to 100%.

In the assay on rat mesenteric arteries (Rattus norvegicus), `O=C(O)CNC(=O)c1cn(Cc2ccccc2)c2ccccc2c1=O` [Compound 117, 2-(1-benzyl-4-oxo-1,4-dihydroquinoline-3-carboxamido)acetic acid] showed an inhibition at 1 µM of 0%, an inhibition at 3 µM of 0%, an inhibition at 10 µM of 2% and an inhibition at 30 µM of 42%. Moreover, in the assay on rat mesenteric arteries (Rattus norvegicus), the EC50 is greater than 50 µM. Besides, in assay [1] (setting [2]), the inhibition at 1 µM came out at 87%. The inhibition at 10 µM in assay [1] (setting [3]) was 100%.

For `O=C(O)CNC(=O)c1cn(Cc2ccccc2)c2ccc(Br)cc2c1=O` [Compound 118, 2-(1-benzyl-6-bromo-4-oxo-1,4-dihydroquinoline-3-carboxamido)acetic acid], the EC50 in the assay with rat mesenteric arteries (Rattus norvegicus) was 2.8 µM. Further, the inhibition at 1 µM was 16.7% in the assay on human platelets and 95% in assay [1] (setting [2]). Also, the “change in BP after intravenous bolus doses” value in the assay on arterial blood pressure (i.v. bolus, FIG. 2) is reported as “dose-dependent decrease in BP”. Moreover, the “change in BP during infusion” value with arterial blood pressure (infusion 1 mg/kg/min during 10 min, FIG. 3) is reported as “reduction in BP that was sustained during 10 minutes”. The inhibition at 10 µM in assay [1] (setting [3]) was 100%. At Human NPR-C, the “binding to human NPR-C (SPR)” value is reported as “binding”.

For the compound `CC(C)C(NC(=O)c1cn(Cc2ccccc2)c2ccc(Br)cc2c1=O)C(=O)O` (centres unmarked) [Compound 119], in the assay on rat mesenteric arteries, the “% relaxation 1 μM” value is given as 2%, the “% relaxation 3 μM” value stood at 5%, the “% relaxation 10 μM” value amounted to 26% and the “% relaxation 30 μM” value came to 94%. Also, the half-maximal effective concentration (EC50) in the assay with rat mesenteric arteries was greater than 50 µM. The “% inhibition 1 μM” value in assay [1] (setting [2]) is 80%. The “% inhibition 10 μM” value in assay [1] (setting [3]) was found to be 100%.

For the compound `CC[C@H](C)[C@H](NC(=O)[C@@H](CCCN=C(N)N)NC(=O)[C@H](CC(=O)O)NC(=O)[C@H]([C@@H](C)CC)N1CC[C@@H](NC(=O)Cc2ccc(NC(=O)c3cnc4ccccc4n3)cc2)C1=O)C(N)=O` [Compound M372049], the “binding to human NPR-C (SPR)” value at Human NPR-C was “binding”.

In the case of “C-type natriuretic peptide [CNP, reference compound]”, the concentration giving a half-maximal response (EC50) with rat mesenteric arteries was 0.0138 µM. Moreover, the “% inhibition of human platelet aggregation (at 1 microM)” value with human platelets is listed as 71.8%. Besides, the “% inhibition 1 μM” value in assay [1] (setting [2]) is 100%. In assay [1] (setting [3]), the “% inhibition 10 μM” value turned out to be 100%. For the same compound, the “binding to human NPR-C (SPR)” value at Human NPR-C is recorded as “binding”.

(Values after patent US10087144B2, “Agents for use in the treatment of cardiovascular and inflammatory diseases structurally based on 4(1 H)-quinolone” (UCL Business PLC, priority 2015, dated 2018).)
